Measured values taken from patent US7041639B2, “Depsipeptide and congeners thereof for use as immunosuppressants” (XCYTE Therapies, Inc., priority 1999, dated 2006).

How the values were obtained:
[1] = tested on: IL-2 production by activated CD4 cells; test: IL-2 ELISA of supernatants; type: cell-based, human; conditions: ELISA after 24 h of 3×28 bead stimulation of purified CD4 cells; FIG. 6
Protocol: Cells are prepared as described above. Supernatants from cells stimulated 24 h are subjected to an IL-2 or TNF-α enzyme linked immunosorbant assay (ELISA) according to the manufacturer's instructions (Biosource International, Sunnyvale, Calif.).
To study the mechanism behind FR901228 inhibition of CD4 cell proliferation, IL-2 and TNF-α production by activated CD4 cells was analyzed. […] The reason for this difference is currently unknown.

[2] = tested on: T-cells; test: Cell survival / viability (sub-G1 DNA, membrane integrity, propidium iodide exclusion); type: cell-based, human
Protocol: Cells are stimulated by three different methodologies 1) Dynabeads (M-450) covalently coupled to anti-CD3 (OKT-3) and anti-CD28 (9.3) antibodies (3×28 beads) according to the manufacturer's instructions (Dynal), 3 beads/cell, 2) Ionomycin (Calbiochem, La Jolla, Calif.) (100 ng/ml) and phorbol 12-myristate-13-acetate (PMA) (Calbiochem) (10 ng/ml), 3) allogeneic dendritic cells (25,000 dendritic cells/200,000 CD4 cells). All cells are stimulated at a concentration of 1×10^6 cells/ml. Cells are incubated with compounds of structure (I) (e.g., FR901228) (NCI, Bethesda, Md.) for 1 to 2 hours prior to stimulation as outlined above. Proliferation assays are conducted in quadruplicate in 96 well flat-bottom plates. Cells are stimulated at 1×10^6 cells/ml in a final volume of 200 μl. Proliferation is measured by MTT assay (MTT assay kit, Chemicon International Inc., Temecula, Calif.) at day 3 (stimulation method 1 and 2) or at day 6 (stimulation method 3), and results are presented as mean value of quadruplicates. PBL cultures or purified CD4 cell cultures are stimulated with 3×28 beads, ionomycin/PMA or allogenic dendritic cells. […] Further, […] cell survival is not affected by FR901228, as assessed by sub-G1 DNA measurement and integrity of the cell membrane (FIG. 5D). […]

[3] = tested on: CD154 on CD4 cells; test: CD154 expression on CD4 cells with or without IL-2; type: cell-based, human; conditions: 20 ng/ml added day three; 3×28 beads and/or 20 units/ml IL-2; read day 4; FIG. 9
Protocol: The effect of FR901228 on the induction of the CD154 activation marker on CD4 cells is studied. In this regard, cells are labeled with FITC-coupled anti-human CD4 Ab (Immunotech, Fullerton, Calif.), PE-coupled anti-human CD154 Ab (Becton Dickinson, Fullerton, Calif.), or FITC- or PE-coupled IgG1 isotype control Ab. Cells, 2×10^5 are labeled for 20 minutes at 4° C. with 2 μl of each antibody in a final volume of 30 μl, washed and resuspended in 1% parformaldehyde (Sigma, St. Louis, Mo.). The cells are stimulated for four days in the presence of 3×28 beads and/or 20 units/ml IL-2 or an anti-IL-2 antibody at day three, FR901228 is added to the culture at a concentration of 20 ng/ml. On day 4, mean fluorescence intensity is measured by flow cytometry.

[4] = tested on: Haras transfected mouse fibroblasts (NIH-3T3); conditions: background statement; cited from earlier work
[5] = tested on: NOD mice; test: Diabetes onset in NOD mice; type: in vivo; conditions: 0.5 mg/kg i.p. every other day; ten NOD animals
Protocol: FR901228 was dissolved in 10% DMSO in PBS and were administered i.p. to NOD or NODSCID mice every other day. Controls contained only the DMSO excipient (10% DMSO in PBS). […] 0.5 mg/kg of FR901228 was administered at each treatment to twenty animals (ten NOD animals and ten NODSCID animals). Every two weeks the number of mice in each treatment group that had become diabetic was evaluated by measuring blood glucose levels using a glucometer at bi-weekly intervals. A reading of more than 200 mg/dl of blood glucose on two consecutive observations was considered indicative of frank diabetes.

[6] = tested on: CD154 transcript; test: RT-PCR of the CD154 transcript; type: cell-based; conditions: 18 hours of stimulation with 3×28 beads; data not shown
Protocol: In separate experiments, RT-PCR of the CD154 transcript was carried out after 18 hours of stimulation with 3×28 beads and various amounts of FR901228. […] Experiments were also conducted using CD4 cells incubated with anti-sense constructs of c-myc. After stimulation by 3×28 beads for twenty-four hours, the anti-sense c-myc construct reduced CD154 expression as measured by flow cytometry by about 50% as compared to controls including:no construct, sense or transfection with a scrambled c-myc construct (data not shown). Accordingly, FR901228 and like compounds may target the activity of c-myc and its induction of CD154 as one mechanism of immune suppression.

[7] = tested on: activation markers on CD4 cells; test: Activation marker assays by flow cytometry; type: cell-based, human
From the text: The effect of FR901228 on the induction of various activation markers on CD4 cells is studied. In this regard, cells are labeled with one or more of the following antibodies: anti-human CD4 Ab (Immunotech, Fullerton, Calif.), FITC-coupled anti-human CD11a Ab (Pharmingen), FITC-coupled anti-human CD26 Ab (Pharmingen), FITC-coupled anti-human CD49d Ab (Coulter), FITC-coupled anti-human CD54 Ab (Pharmingen and Becton Dickinson), FITC-coupled anti-human CD95 Ab (Pharmingen), FITC-coupled anti-human CD134 Ab (Pharmingen), FITC-coupled anti-human CD25 Ab (Becton Dickinson, Fullerton, Calif.), FITC-coupled anti-human CD69 Ab (Becton Dickinson), FITC- or PE-coupled anti-human CD154 Ab (Becton Dickinson), or FITC- or PE- coupled IgG1 isotype control Ab. Cells, 2×10^5 are labeled for 20 minutes at 4° C. with 2 μl of each antibody in a final volume of 30 μl, washed and resuspended in 1% parformaldehyde (Sigma, St. Louis, Mo.). […] In contrast, CD69 induction is not affected by 100 ng/ml FR901228 (FIG. 5C).

[8] = 3×28 beads, 20 ng/ml, FIGS. 8A–8B

Q: With C/C=C1\NC(=O)[C@H]2CSSCC/C=C/[C@H](CC(=O)N[C@H](C(C)C)C(=O)N2)OC(=O)[C@H](C(C)C)NC1=O [FR901228] as the compound, how does the “lowest concentration that markedly inhibits IL-2 production” value [1] read?
A: The value was 10 ng/mL.

Q: And the “cell survival by sub-G1 DNA measurement and integrity of the cell membrane” value ([2]; FIG. 5D)?
A: The value was “not affected”.

Q: What about the “cell viability by propidium iodide (PI) exclusion” value ([2]; concentrations up to 100 ng/ml) of the same compound?
A: Its value is “not significantly affected”.

Q: What about the “CD154 expression in presence or absence of IL-2” value [3] of the same compound?
A: The value was “suppression of CD154 expression”.

Q: And the “transformation of Haras transfected NIH-3T3” value [4]?
A: The value was “inhibit transformation”.

Q: What about the “development of frank diabetes during the 18 week study” value [5] of the same compound?
A: Its value is “no NOD mouse treated with the compound developed frank diabetes”.

Q: And the “levels of CD154 expression by RT-PCR” value [6]?
A: Its value is “reduced levels of CD154 expression with increasing amounts”.

Q: And the CD69 induction ([7]; 100 ng/ml, FIG. 5C)?
A: Its CD69 induction is “not affected”.

Q: And the “CD69 induction or activation induced downregulation of CD62L” value [7, 8]?
A: The value was “no significant affect”.

Q: What about the “induction of CD25, CD134, CD137w, CD154, CD11a, CD54, and CD95 on CD4 T-cells” value [7, 8] of the same compound?
A: The value was “inhibition”.

Q: And the “lowest concentration at which CD154 expression is strongly suppressed” value ([7]; after 3×28 bead stimulation, FIG. 5A)?
A: Its value is 10 ng/mL.

Q: What about the “lowest concentration at which CD25 expression is strongly suppressed” value ([7]; after 3×28 bead stimulation, FIG. 5B) of the same compound?
A: Its value is 10 ng/mL.
